Measured values from patent US7893062B2, “Pyrrolidine derivatives as dual NK1/NK3 receptor antagonists” (Hoffmann-La Roche Inc., priority 2007, dated 2011).

Columns and labels:
human NK1 receptor = human NK1 receptor (Homo sapiens, UniProt P25103); test: NK1 receptor affinity, [3H]substance P displacement in CHO cell membranes; format: binding; conditions: human NK1 receptor in CHO cells, [3H]substance P 0.6 nM
Procedure: The affinity of test compounds for the NK1 receptor was evaluated at human NK1 receptors in CHO cells infected with the human NK1 receptor (using the Semliki virus expression system) and radiolabelled with [^3H]substance P (final concentration 0.6 nM). Binding assays were performed in HEPES buffer (50 mM, pH 7.4) containing BSA (0.04%) leupeptin (16.8 μg/ml), MnCl2 (3 mM) and phosphoramidon (2 μM). Binding assays consisted of 250 μl of membrane suspension (approximately 1.5 μg/well in a 96 well plate), […] of buffer of displacing agent and 125 μl of [^3H]substance P. Displacement curves were determined with at least seven concentrations of the compound. The assay tubes were incubated for 60 min at room temperature after which time the tube contents were rapidly filtered under vacuum through GF/C filters presoaked for 60 min with PEI (0.3%) with 3×1 ml washes of HEPES buffer (50 mM, pH 7.4). The radioactivity retained on the filters was measured by scintillation counting. All assays were performed in duplicate in at least 2 separate experiments. NK3

[1] = target: T1, human NK3 (hNK3) receptor (Homo sapiens, UniProt P29371); test: Recombinant hNK3 receptor affinity, [3H]SR142801 displacement; format: binding; conditions: recombinant hNK3 membranes, [3H]SR142801 0.3 nM
T1 construct: expressed in transfected cells
T1 sequence (P29371 1-465): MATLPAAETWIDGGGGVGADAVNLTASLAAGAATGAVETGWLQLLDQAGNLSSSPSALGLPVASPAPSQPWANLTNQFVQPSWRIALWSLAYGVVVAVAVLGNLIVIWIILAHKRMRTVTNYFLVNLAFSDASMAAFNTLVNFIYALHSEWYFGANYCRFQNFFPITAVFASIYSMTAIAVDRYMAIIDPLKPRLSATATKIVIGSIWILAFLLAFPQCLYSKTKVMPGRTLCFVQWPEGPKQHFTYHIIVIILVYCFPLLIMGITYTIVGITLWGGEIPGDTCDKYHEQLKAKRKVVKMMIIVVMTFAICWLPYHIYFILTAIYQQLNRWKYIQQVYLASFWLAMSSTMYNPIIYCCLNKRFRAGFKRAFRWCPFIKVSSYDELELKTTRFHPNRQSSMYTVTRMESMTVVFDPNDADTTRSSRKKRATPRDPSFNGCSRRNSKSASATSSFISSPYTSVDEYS
Procedure: Recombinant human NK3 (hNK3) receptor affinity was determined in a 96 well plate assay, using [^3H]SR142801 (final concentration 0.3 nM) to radiolabel the hNK3 receptor in the presence of 10 concentrations of competing compound or buffer. Non specific binding was determined using 10 μM SB222200. Assay buffer consisted of Tris-HCl (50 mM, pH 7.4), BSA (0.1%), MnCl2 (4 mM) and phosphoramidon (1 μM). Membrane preparations of hNK3 receptors (approximately 2.5 μg/well in a 96 well plate) were used to initiate the incubation for 90 min at room temperature. This assay was terminated by rapid filtration under vacuum through GF/C filters, presoaked for 90 min with PEI (0.3%), with 3×0.5 ml washes of ice-cold Tris buffer (50 mM, pH 7.4) containing 0.1% BSA. The radioactivity retained on the filters was measured by scintillation counting. All assays were performed in duplicate in at least two separate experiments.

[2] = phase II trial, cited from earlier work

Chain of human NK1 receptor (P25103 whole entry): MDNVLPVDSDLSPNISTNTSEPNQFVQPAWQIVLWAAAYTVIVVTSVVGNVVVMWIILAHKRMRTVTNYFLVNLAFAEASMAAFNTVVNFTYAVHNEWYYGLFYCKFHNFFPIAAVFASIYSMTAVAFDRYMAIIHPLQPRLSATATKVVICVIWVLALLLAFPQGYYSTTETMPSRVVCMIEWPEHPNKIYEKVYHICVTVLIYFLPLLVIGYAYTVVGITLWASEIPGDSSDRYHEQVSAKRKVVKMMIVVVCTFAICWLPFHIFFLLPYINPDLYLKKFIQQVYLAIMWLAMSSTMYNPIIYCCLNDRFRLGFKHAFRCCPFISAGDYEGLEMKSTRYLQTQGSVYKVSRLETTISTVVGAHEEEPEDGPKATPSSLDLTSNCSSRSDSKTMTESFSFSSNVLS

Row | SMILES | Ki (human NK1 receptor) [nM] | Ki [1] [nM] | activity on positive symptoms of schizophrenia ([2]; altered behaviour, delusion, hallucinations, extreme emotions, excited motor activity, incoherent speech) | activity in the treatment of negative symptoms of schizophrenia ([2]; depression, anhedonia, social isolation, memory and attention deficits)
1 | CN(C(=O)C(C)(C)c1cc(C(F)(F)F)cc(C(F)(F)F)c1)[C@@H]1CN(C(=O)N2CCOCC2)C[C@H]1c1ccc(Cl)cc1 (racemic) [Example 2, rac-2-(3,5-Bis-trifluoromethyl-phenyl)-N-[(3S,4R)-4-(4-chloro-phenyl)-1-(morpholine-4-carbonyl)-pyrrolidin-3-yl]-N-methyl-isobutyramide] | 2.35 | 457 | – | –
2 | CN(C(=O)C(C)(C)c1cc(C(F)(F)F)cc(C(F)(F)F)c1)[C@@H]1CN(C(=O)N2CCN(S(C)(=O)=O)CC2)C[C@H]1c1ccc(F)cc1 (racemic) [Example 15, rac-2-(3,5-Bis-trifluoromethyl-phenyl)-N-[(3S,4R)-4-(4-fluoro-phenyl)-1-(4-methanesulfonyl-piperazine-1-carbonyl)-pyrrolidin-3-yl]-N-methyl-isobutyramide] | 2.06 | 155 | – | –
3 | CC(=O)N1CCN(C(=O)N2C[C@@H](N(C)C(=O)C(C)(C)c3cc(C(F)(F)F)cc(C(F)(F)F)c3)[C@H](c3ccc(F)cc3)C2)CC1 (racemic) [Example 16, rac-N-[(3S,4R)-1-(4-Acetyl-piperazine-1-carbonyl)-4-(4-fluoro-phenyl)-pyrrolidin-3-yl]-2-(3,5-bis-trifluoromethyl-phenyl)-N-methyl-isobutyramide] | 1.41 | 309 | – | –
4 | CN(C(=O)C(C)(C)c1cc(C(F)(F)F)cc(C(F)(F)F)c1)[C@@H]1CN(C(=O)N(CCO)CCO)C[C@H]1c1ccc(F)cc1 (racemic) [Example 21, rac-(3S,4R)-3-{[2-(3,5-Bis-trifluoromethyl-phenyl)-2-methyl-propionyl]-methyl-amino}-4-(4-fluoro-phenyl)-pyrrolidine-1-carboxylic acid bis-(2-hydroxy-ethyl)-amide] | 1.08 | 204 | – | –
5 | CN(C(=O)C(C)(C)c1cc(C(F)(F)F)cc(C(F)(F)F)c1)[C@@H]1CN(C(=O)N2CCN(S(C)(=O)=O)CC2)C[C@H]1c1ccccc1 (racemic) [Example 22, rac-2-(3,5-Bis-trifluoromethyl-phenyl)-N-[(3S,4R)-1-(4-methanesulfonyl-piperazine-1-carbonyl)-4-phenyl-pyrrolidin-3-yl]-N-methyl-isobutyramide] | 0.875 | 203 | – | –
6 | CN(C(=O)C(C)(C)c1cc(Cl)cc(Cl)c1)[C@@H]1CN(C(=O)N2CCN(S(C)(=O)=O)CC2)C[C@H]1c1ccc(F)cc1 (racemic) [Example 23, rac-2-(3,5-Dichloro-phenyl)-N-[(3S,4R)-4-(4-fluoro-phenyl)-1-(4-methanesulfonyl-piperazine-1-carbonyl)-pyrrolidin-3-yl]-N-methyl-isobutyramide] | 1.12 | 92.4 | – | –
7 | CN(C(=O)C(C)(C)c1cc(Cl)cc(Cl)c1)[C@@H]1CN(C(=O)N2CCOCC2)C[C@H]1c1ccc(F)cc1 (racemic) [Example 24, rac-2-(3,5-Dichloro-phenyl)-N-[(3S,4R)-4-(4-fluoro-phenyl)-1-(morpholine-4-carbonyl)-pyrrolidin-3-yl]-N-methyl-isobutyramide] | 1.92 | 200 | – | –
8 | CN(C(=O)C(C)(C)c1cc(C(F)(F)F)cc(C(F)(F)F)c1)[C@@H]1CN(C(=O)NCCO)C[C@H]1c1ccc(F)cc1 (racemic) [Example 26, rac-(3S,4R)-3-{[2-(3,5-Bis-trifluoromethyl-phenyl)-2-methyl-propionyl]-methyl-amino}-4-(4-fluoro-phenyl)-pyrrolidine-1-carboxylic acid (2-hydroxy-ethyl)-amide] | 0.634 | 212 | – | –
9 | Cc1cc(F)ccc1[C@@H]1CN(C(=O)N2CCOCC2)C[C@H]1N(C)C(=O)C(C)(C)c1cc(C(F)(F)F)cc(C(F)(F)F)c1 (racemic) [Example 27, rac-2-(3,5-Bis-trifluoromethyl-phenyl)-N-[(3S,4R)-4-(4-fluoro-2-methyl-phenyl)-1-(morpholine-4-carbonyl)-pyrrolidin-3-yl]-N-methyl-isobutyramide] | 0.341 | 276 | – | –
10 | Cc1cc(F)ccc1[C@@H]1CN(C(=O)N2CCN(S(C)(=O)=O)CC2)C[C@H]1N(C)C(=O)C(C)(C)c1cc(C(F)(F)F)cc(C(F)(F)F)c1 (racemic) [Example 28, rac-2-(3,5-Bis-trifluoromethyl-phenyl)-N-[(3S,4R)-4-(4-fluoro-2-methyl-phenyl)-1-(4-methanesulfonyl-piperazine-1-carbonyl)-pyrrolidin-3-yl]-N-methyl-isobutyramide] | 0.689 | 137 | – | –
11 | CN(C(=O)C(C)(C)c1cc(Cl)cc(Cl)c1)[C@@H]1CN(C(=O)N2CCN(S(C)(=O)=O)CC2)C[C@H]1c1ccc(Cl)cc1 (racemic) [Example 55, rac-N-[(3S,4R)-4-(4-Chloro-phenyl)-1-(4-methanesulfonyl-piperazine-1-carbonyl)-pyrrolidin-3-yl]-2-(3,5-dichloro-phenyl)-N-methyl-isobutyramide] | 3.16 | 30 | – | –
12 | CC(=O)N(C)C1(c2ccccc2)CCN(CCC[C@]2(c3ccc(Cl)c(Cl)c3)CCCN(C(=O)c3ccccc3)C2)CC1 [SR 142,801, Osanetant] | – | – | active | inactive
